Assays:
[1] = system: Pyricularia oryzae; experiment: microbe, parasite or virus in culture; assay type: cell-based; details: 168 h, read-out: control
[2] = system: Phakopsora pachyrhizi; experiment: Phakopsora pachyrhizi test in soybean (greenhouse, preventive activity, disease severity rating); assay type: in vivo; details: preventive spray on soybean, compared to the untreated check
Method: To test the preventive activity of compounds, healthy young soybean plants, raised in the greenhouse, were sprayed with the active compound solution at the stated application rates inside spray cabinets using hallowcone nozzles. One day after treatment, the plants were inoculated with a suspension containing 2.1×10^6 Phakopsora pachyrhizi spores. The inoculated plants were then kept in the greenhouse chamber at 25° C. temperature and 90% relative humidity for disease expression. A visual assessment of the compound's performance was carried out by rating the disease severity (0-100% scale) on treated plants on 3, 7, 10 and 15 days after application. Efficacy (% control) of the compounds was calculated by comparing the disease rating in the treatment with the one of the untreated control. The treated plants were also assessed for plant compatibility by recording symptoms like necrosis, chlorosis and stunting.

Row | Structure (SMILES) | inhibition of growth at 300 ppm [1] | pest or weed control at 500 ppm [2]
1 | CC(=O)N1CC(N(c2ccc(-c3noc(C(F)(F)F)n3)cc2)c2ccc(-c3noc(C(F)(F)F)n3)cc2)C1 [Compound 90, 1-(3-(bis(4-(5-(trifluoromethyl)-1,2,4-oxadiazol-3-yl)phenyl)amino)azetidin-1-yl)ethan-1-one] | > 70% | 
2 | COc1cccc(C(=O)N2CC(Oc3ccc(-c4noc(C(F)(F)F)n4)cc3)C2)c1 [Compound 17, (3-methoxyphenyl)(3-(4-(5-(trifluoromethyl)-1,2,4-oxadiazol-3-yl)phenoxy)azetidin-1-yl)methanone] | > 70% | > 70%
3 | CC(C)(C)OC(=O)N1CC[C@H](Oc2ccc(-c3noc(C(F)(F)F)n3)cc2F)C1 [Compound 60, tert-butyl-(S)-3-(2-fluoro-4-(5-(trifluoromethyl)-1,2,4-oxadiazol-3-yl)phenoxy)pyrrolidine-1-carboxylate] | > 70% | > 70%
4 | O=C(c1ccccc1)N1CC[C@@H](Sc2ccc(-c3noc(C(F)(F)F)n3)cc2)C1 [Compound 177, (R)-phenyl(3-((4-(5-(trifluoromethyl)-1,2,4-oxadiazol-3-yl)phenyl)thio)pyrrolidin-1-yl)methanone] | > 70% | 
5 | Cc1ccc(C(=O)N2CCC(Oc3cccc(-c4noc(C(F)(F)F)n4)c3)C2)cc1 (stereo not shown) [Compound 135, p-tolyl(3-(3-(5-(trifluoromethyl)-1,2,4-oxadiazol-3-yl)phenoxy)pyrrolidin-1-yl)methanone] | > 70% | 
6 | O=C(c1ccncc1)N1CCC(Oc2ccc(-c3noc(C(F)(F)F)n3)cc2)CC1 [Compound 179, pyridin-4-yl(4-(4-(5-(trifluoromethyl)-1,2,4-oxadiazol-3-yl)phenoxy)piperidin-1-yl)methanone] | > 70% | 
7 | O=C(c1ccncc1)N1CC[C@@H](Oc2ccc(-c3noc(C(F)(F)F)n3)cn2)C1 [Compound 78, (R)-pyridin-4-yl(3-((5-(5-(trifluoromethyl)-1,2,4-oxadiazol-3-yl)pyridin-2-yl)oxy)pyrrolidin-1-yl)methanone] | > 70% | 
8 | COc1cccc(S(=O)(=O)N2CC(N(C)c3ccc(-c4noc(C(F)(F)F)n4)cc3)C2)c1 [Compound 198, 1-((3-methoxyphenyl)sulfonyl)-N-methyl-N-(4-(5-(trifluoromethyl)-1,2,4-oxadiazol-3-yl)phenyl)azetidin-3-amine] | > 70% | 
9 | CCS(=O)(=O)N1CC[C@H](Oc2ccc(-c3noc(C(F)(F)F)n3)cc2)C1 [Compound 40, (S)-3-(4-((1-(ethylsulfonyl)pyrrolidin-3-yl)oxy)phenyl)-5-(trifluoromethyl)-1,2,4-oxadiazole] | > 70% | 
10 | Cc1cccc(C(=O)N2CC[C@@H](Sc3ccc(-c4noc(C(F)(F)F)n4)cc3)C2)c1 [Compound 172, (R)-m-tolyl(3-((4-(5-(trifluoromethyl)-1,2,4-oxadiazol-3-yl)phenyl)thio)pyrrolidin-1-yl)methanone] | > 70% | 
11 | CN(c1ccc(-c2noc(C(F)(F)F)n2)cc1)C1CN(C(=O)C(C)(C)C)C1 [Compound 129, 2,2-dimethyl-1-(3-(methyl(4-(5-(trifluoromethyl)-1,2,4-oxadiazol-3-yl)phenyl)amino)azetidin-1-yl)propan-1-one] |  | > 70%
12 | O=C(Nc1ccccc1F)N1CC[C@H](Oc2ccc(-c3noc(C(F)(F)F)n3)cc2)C1 [Compound 37, (S)—N-(2-fluorophenyl)-3-(4-(5-(trifluoromethyl)-1,2,4-oxadiazol-3-yl)phenoxy)pyrrolidine-1-carboxamide] |  | > 70%
13 | O=S(=O)(c1cccnc1)N1CC[C@H](Oc2ccc(-c3noc(C(F)(F)F)n3)cn2)C1 [Compound 153, (S)-3-(6-((1-(pyridin-3-ylsulfonyl)pyrrolidin-3-yl)oxy)pyridin-3-yl)-5-(trifluoromethyl)-1,2,4-oxadiazole] |  | > 70%
14 | O=C(c1cccc(Br)c1)N1CC(Oc2ccc(-c3noc(C(F)(F)F)n3)cc2)C1 [Compound 16, (3-bromophenyl)(3-(4-(5-(trifluoromethyl)-1,2,4-oxadiazol-3-yl)phenoxy)azetidin-1-yl)methanone] |  | > 70%
15 | COc1ccc(C(=O)N2CC[C@H](Oc3ccc(-c4noc(C(F)(F)F)n4)nc3)C2)cc1 [Compound 29, (S)-(4-methoxyphenyl)(3-((6-(5-(trifluoromethyl)-1,2,4-oxadiazol-3-yl)pyridin-3-yl)oxy)pyrrolidin-1-yl)methanone] |  | > 70%
16 | O=C(c1ccc(F)cc1)N1CC[C@H](Oc2ccc(-c3noc(C(F)(F)F)n3)cc2)C1 [Compound 14, (S)-(4-fluorophenyl)(3-(4-(5-(trifluoromethyl)-1,2,4-oxadiazol-3-yl)phenoxy)pyrrolidin-1-yl)methanone] |  | > 70%

Row | Structure (SMILES) | inhibition of growth at 300 ppm [1] | pest or weed control at 500 ppm [2]
17 | O=C(Cc1ccc(Cl)cc1)N1CCC(Oc2ccc(-c3noc(C(F)(F)F)n3)cc2)CC1 [Compound 145, 2-(4-chlorophenyl)-1-(4-(4-(5-(trifluoromethyl)-1,2,4-oxadiazol-3-yl)phenoxy)piperidin-1-yl)ethan-1-one] |  | > 70%
18 | O=S(=O)(c1cccc(C(F)(F)F)c1)N1CC[C@H](Oc2ccc(-c3noc(C(F)(F)F)n3)cn2)C1 [Compound 151, (S)-5-(trifluoromethyl)-3-(6-((1-((3-(trifluoromethyl)phenyl)sulfonyl)pyrrolidin-3-yl)oxy)pyridin-3-yl)-1,2,4-oxadiazole] |  | > 70%
19 | O=S(=O)(c1cccc(Cl)c1)N1CC[C@H](Oc2ccc(-c3noc(C(F)(F)F)n3)cc2)C1 [Compound 122, (S)-3-(4-((1-((3-chlorophenyl)sulfonyl)pyrrolidin-3-yl)oxy)phenyl)-5-(trifluoromethyl)-1,2,4-oxadiazole] |  | > 70%
20 | O=C(c1cccc(Cl)c1)N1CCC(Oc2cccc(-c3noc(C(F)(F)F)n3)c2)C1 (stereo not shown) [Compound 144, (3-chlorophenyl)(3-(3-(5-(trifluoromethyl)-1,2,4-oxadiazol-3-yl)phenoxy)pyrrolidin-1-yl)methanone] |  | > 70%
21 | O=S(=O)(N1CC[C@H](Oc2ccc(-c3noc(C(F)(F)F)n3)cc2)C1)C(F)(F)F [Compound 114, (S)-5-(trifluoromethyl)-3-(4-((1-((trifluoromethyl)sulfonyl)pyrrolidin-3-yl)oxy)phenyl)-1,2,4-oxadiazole] |  | > 70%
22 | CC(C)(C)OC(=O)N1CC[C@H](Oc2ccc(-c3noc(C(F)(F)F)n3)nc2)C1 [Compound 27, tert-butyl (S)-3-((6-(5-(trifluoromethyl)-1,2,4-oxadiazol-3-yl)pyridin-3-yl)oxy)pyrrolidine-1-carboxylate] |  | > 70%
23 | O=S(=O)(C1CC1)N1CC[C@H](Oc2ccc(-c3noc(C(F)(F)F)n3)cc2)C1 [Compound 41, (S)-3-(4-((1-(cyclopropylsulfonyl)pyrrolidin-3-yl)oxy)phenyl)-5-(trifluoromethyl)-1,2,4-oxadiazole] |  | > 70%
24 | COc1ccc(S(=O)(=O)N2CC[C@H](Oc3ccc(-c4noc(C(F)(F)F)n4)cc3)C2)cc1 [Compound 34, (S)-3-(4-((1-((4-methoxyphenyl)sulfonyl)pyrrolidin-3-yl)oxy)phenyl)-5-(trifluoromethyl)-1,2,4-oxadiazole] |  | > 70%
25 | O=C(c1ccccc1F)N1CCC(Oc2ccc(-c3noc(C(F)(F)F)n3)cc2)CC1 [Compound 92, (2-fluorophenyl)(4-(4-(5-(trifluoromethyl)-1,2,4-oxadiazol-3-yl)phenoxy)piperidin-1-yl)methanone] | > 70% | 
26 | O=C(c1ccc(Cl)cc1)N1CC[C@H](Oc2ccc(-c3noc(C(F)(F)F)n3)cc2)C1 [Compound 44, (S)-(4-chlorophenyl)(3-(4-(5-(trifluoromethyl)-1,2,4-oxadiazol-3-yl)phenoxy)pyrrolidin-1-yl)methanone] |  | > 70%
27 | Cc1cccc(S(=O)(=O)N2CC[C@H](Oc3ccc(-c4noc(C(F)(F)F)n4)cn3)C2)c1 [Compound 112, (S)-3-(6-((1-(m-tolylsulfonyl)pyrrolidin-3-yl)oxy)pyridin-3-yl)-5-(trifluoromethyl)-1,2,4-oxadiazole] |  | > 70%
28 | COc1ccc(C(=O)N2CCC(Oc3cccc(-c4noc(C(F)(F)F)n4)c3)C2)cc1 (stereo not shown) [Compound 146, (4-methoxyphenyl)(3-(3-(5-(trifluoromethyl)-1,2,4-oxadiazol-3-yl)phenoxy)pyrrolidin-1-yl)methanone] |  | > 70%
29 | O=C(Nc1ccc(F)cc1)N1CC[C@H](Oc2ccc(-c3noc(C(F)(F)F)n3)cc2)C1 [Compound 38, (S)-N-(4-fluorophenyl)-3-(4-(5-(trifluoromethyl)-1,2,4-oxadiazol-3-yl)phenoxy)pyrrolidine-1-carboxamide] |  | > 70%
30 | O=S(=O)(c1cccc(Cl)c1)N1CC[C@H](Oc2ccc(-c3noc(C(F)(F)F)n3)cn2)C1 [Compound 108, (S)-3-(6-((1-((3-chlorophenyl)sulfonyl)pyrrolidin-3-yl)oxy)pyridin-3-yl)-5-(trifluoromethyl)-1,2,4-oxadiazole] |  | > 70%
31 | O=S(=O)(c1ccccc1F)N1CC[C@H](Oc2ccc(-c3noc(C(F)(F)F)n3)cc2)C1 [Compound 33, (S)-3-(4-((1-((2-fluorophenyl)sulfonyl)pyrrolidin-3-yl)oxy)phenyl)-5-(trifluoromethyl)-1,2,4-oxadiazole] |  | > 70%
32 | CN(c1ccc(-c2noc(C(F)(F)F)n2)cc1)C1CCN(C(=O)OC(C)(C)C)C1 (stereo not shown) [Compound 167, tert-butyl 3-(methyl(4-(5-(trifluoromethyl)-1,2,4-oxadiazol-3-yl)phenyl)amino)pyrrolidine-1-carboxylate] | > 70% | 

Source: patent publication US20210392895A1, “NOVEL OXADIAZOLES” (PI INDUSTRIES LIMITED, priority 2018, published 2021)
